Reference: the NIST ThermoML archive (doi:10.1016/j.jct.2006.10.016)
Numbers after ± are expanded uncertainties.

Key:
[1] = xn = mol fraction of the nth substance listed; conditions: 101 kPa, Liquid
[2] = 101 kPa, Liquid

C[S+](C)[O-] [dimethyl sulfoxide] + CCCO
[1]
Conditions	mass density, 303.15 K [kg/m3]	mass density, 308.15 K [kg/m3]	mass density, 313.15 K [kg/m3]	mass density, 318.15 K [kg/m3]	mass density, 323.15 K [kg/m3]	viscosity, 303.15 K [mPa·s]	viscosity, 308.15 K [mPa·s]	viscosity, 313.15 K [mPa·s]	viscosity, 318.15 K [mPa·s]	viscosity, 323.15 K [mPa·s]
x1 = 0.1003	824.3 ± 2.1	820.3 ± 2.2	816.5 ± 2.3	812.7 ± 2.4	808.9 ± 2.5	1.598 ± 0.072	1.436 ± 0.066	1.257 ± 0.058	1.142 ± 0.054	1.034 ± 0.049
x1 = 0.1995	853.1 ± 2.2	848.6 ± 2.3	844.8 ± 2.4	840.8 ± 2.5	836.8 ± 2.6	1.41 ± 0.065	1.278 ± 0.059	1.163 ± 0.055	1.066 ± 0.051	0.9724 ± 0.047
x1 = 0.2999	881.4 ± 2.3	876.6 ± 2.4	873.2 ± 2.5	868.7 ± 2.6	864.8 ± 2.7	1.402 ± 0.064	1.277 ± 0.059	1.173 ± 0.055	1.078 ± 0.051	0.9878 ± 0.047
x1 = 0.3994	910.1 ± 2.4	905.3 ± 2.5	901.7 ± 2.6	897.1 ± 2.7	892.9 ± 2.8	1.393 ± 0.064	1.273 ± 0.059	1.17 ± 0.055	1.084 ± 0.051	0.9964 ± 0.048
x1 = 0.5	938.7 ± 2.5	933.4 ± 2.6	929.7 ± 2.7	924.3 ± 2.8	919.7 ± 2.9	1.425 ± 0.065	1.31 ± 0.061	1.207 ± 0.056	1.11 ± 0.052	1.017 ± 0.049
x1 = 0.5995	968.1 ± 2.5	962.5 ± 2.6	958.8 ± 2.8	953.2 ± 2.9	948.6 ± 3	1.492 ± 0.068	1.357 ± 0.063	1.246 ± 0.058	1.148 ± 0.054	1.07 ± 0.051
x1 = 0.7002	998.2 ± 2.6	992.2 ± 2.7	988.8 ± 2.9	982.3 ± 3	977.6 ± 3.1	1.532 ± 0.07	1.4 ± 0.064	1.29 ± 0.06	1.201 ± 0.056	1.1 ± 0.052
x1 = 0.7998	1027.6 ± 2.7	1021.6 ± 2.8	1017.5 ± 2.9	1011 ± 3	1006.1 ± 3.1	1.593 ± 0.072	1.452 ± 0.067	1.335 ± 0.062	1.247 ± 0.058	1.14 ± 0.054
x1 = 0.9004	1059.4 ± 2.8	1053 ± 2.9	1050 ± 3	1043 ± 3.1	1037.6 ± 3.2	1.728 ± 0.078	1.629 ± 0.074	1.493 ± 0.068	1.361 ± 0.063	1.219 ± 0.057
x1 = 1	1090.7 ± 2.9	1084.7 ± 3	1082.3 ± 3.2	1075.1 ± 3.2	1070 ± 3.4	1.832 ± 0.082	1.67 ± 0.076	1.537 ± 0.07	1.408 ± 0.065	1.289 ± 0.06

CO [methanol]
[2]
Conditions	mass density [kg/m3]	viscosity [mPa·s]
303.15 K	781.3 ± 1.9	0.5178 ± 0.028
308.15 K	778.2 ± 2.1	0.4843 ± 0.026
313.15 K	772.4 ± 2.2	0.4515 ± 0.025
318.15 K	767.8 ± 2.3	0.4233 ± 0.024
323.15 K	762.7 ± 2.4	0.395 ± 0.023
